{"source": "patent US20230052424A1", "about": "“Peramivir Dry Powder Inhaler and Method of Preparing the Same” (GUANGZHOU NUCIEN PHARMACEUTICAL CO., LTD, priority 2020, published 2023)", "key": {"[1]": {"test_system": "Influenza A/PR/8/34 virus", "assay": "In vivo protection of mice infected with influenza virus (mortality, survival time)", "parameters": "species or system Balb/c mice", "settings": "10 mg/kg intragastric, once per day 5 days from 2 h post-infection, 10 mice, 15 days observed", "description": "80 SPF Balb/c mice, half male and half female, weighing 16.9˜22.6 g each, were stochastically divided into 8 groups: a normal control group, a virus model group, an oseltamivir phosphate capsule group (Tamiflu) (10 mg/kg), a peramivir intravenous injection group (10 mg/kg), and peramivir dry powder inhaler (example 3) groups I-IV (0.1, 0.3, 0.9, 2.7 mg/kg), ten mice in each group. […] Prior to daily administration, the peramivir intravenous injection was prepared into a 1.0 mg/mL liquor with 0.9% sodium chloride injection, and the oseltamivir phosphate capsule was prepared into a 0.5 mg/mL liquor with pure water. The mice in each group were all administered at 2 h post-modeling of the intranasal virus infection, wherein the mice in each peramivir dry powder inhaler group were administered with a corresponding dosage of peramivir dry powder inhaler, the mice in the peramivir intravenous injection group were intravenously injected with the peramivir liquid as per a dosage of 10 mL/kg, the oseltamivir phosphate capsule group were intragastrically administered with oseltamivir phosphate liquid as per a dosage of 20 mL/kg, and the normal control group and the model control group were sprayed with air of the same volume via their trachea. The mice were administered once per day, 5 days in succession. The first day (D1) of virus infection was counted from the next day of the intranasal virus inflection modeling."}, "[2]": {"test_system": "Influenza A/PR/8/34 virus", "assay": "Viral titer of mouse lung tissue (hemagglutination titer)", "assay_type": "in vivo, Balb/c mice", "settings": "10 mg/kg intragastric once per day, lung suspension, logarithmic value of maximum dilution factor", "description": "84 SPF Balb/c mice, half male and half female, weighing 21.2˜26.6 g each, were stochastically divided into 7 groups: a normal control group, a virus model group, an oseltamivir phosphate capsule group (Tamiflu) (10 mg/kg), a peramivir I.V. group (10 mg/kg), and peramivir dry powder inhaler (example 3) groups I-III (0.1, 0.3, 0.9 mg/kg), twelve mice in each group (in each group, F04˜F06 and M04˜M06 were subjected to 24 h hemagglutination titer measurement, and F01˜F03 and M1˜M03 were subjected to 48 h hemagglutination titer measurement). […] Prior to daily administration, the peramivir I.V. injection was prepared into a 1.0 mg/mL liquor with 0.9% sodium chloride injection, and the oseltamivir phosphate capsule was prepared into a 0.5 mg/mL liquor with pure water. The mice in each group were all administered at 2 h post-modeling of the intranasal virus infection, wherein the mice in each peramivir DPI group were administered with a corresponding dosage of peramivir dry powder inhaler, the mice in the peramivir intravenous injection group were intravenously injected with the peramivir liquid as per a dosage of 10 mL/kg, the oseltamivir phosphate capsule group were intragastrically administered with oseltamivir phosphate liquid as per a dosage of 20 mL/kg, and the normal control group and the model control group were sprayed with air of the same volume via their trachea. The mice were administered once per day, 2 days in succession.\n6 mice, half male and half female, were stochastically selected from each group at 24 h and 48 h post-administration, respectively. The mice were euthanized by cervical dislocation and their lungs were procured through dissection and then put in a homogenizer. 0.9% sodium chloride injection was added according to a ratio of the lung weight (g) to 0.9% sodium chloride injection (mL)=1:9, followed by grinding the homogenates into mouse lung suspensions. The mouse lung suspensions were subjected to centrifugation at 2500 rpm for 20 min under a 4° C. environment, with the supernatant being acquired for future use. Except the first column, 50 μL PBS (Phosphate Buffer Saline) was added into hemagglutination plate wells. 100 μL to-be-tested supernatant was added into each well in the first column, respectively, followed by adding with serial dilution till the wells in the 11th column, and then 50 μL 0.5% chicken erythrocyte was added into each well, respectively, followed by setting for 40 min; the hemagglutination plate was then tilted to observe whether the erythrocyte flew in a teardrop shape. […]"}, "[3]": {"settings": "listed as oseltamivir phosphate"}}, "note": "Marks after values point to notes of the source that are not given here.", "data": [{"smiles": "CCOC(=O)C1=C[C@@H](OC(CC)CC)[C@H](NC(C)=O)[C@@H](N)C1", "note": "[Oseltamivir phosphate]", "values": [{"measurement": "Average number of survival days", "setting": "[1]", "result": "11.3 ± 4.8", "unit": "days"}, {"measurement": "Mortality rate (%)", "setting": "[1]", "result": "40** %"}, {"measurement": "Number of deaths", "setting": "[1]", "result": 4}, {"measurement": "Number of survivals", "setting": "[1]", "result": 6}, {"measurement": "Average number of survival days", "setting": "[1]; [3]", "result": "significantly prolonged"}, {"measurement": "Mortality rate (%)", "setting": "[1]; [3]", "result": "significantly decreased"}, {"measurement": "hemagglutination titer", "setting": "[2]; 24 h, n = 6", "result": "2.5 ± 0.5"}, {"measurement": "hemagglutination titer", "setting": "[2]; 24 h, n = 6, listed as oseltamivir phosphate", "result": "notably decreased"}, {"measurement": "hemagglutination titer", "setting": "[2]; 48 h, n = 6", "result": "2.2 ± 0.8"}, {"measurement": "hemagglutination titer", "setting": "[2]; 48 h, n = 6, listed as oseltamivir phosphate", "result": "notably decreased"}]}]}
